Data set [1] can be described thus: Assay (IX) pK, determination of T½ in mini-pig. The settings on record: male, Göttingen, iv, 2 nmol/kg; minipig; plasma terminal half-life. It counts as in vivo, Göttingen mini-pigs.
Another data set relates to food intake. The data set is described as follows: Assay (I) efficacy testing on appetite (food intake), ad libitum fed rat model. It counts as in vivo, Sprague Dawley (SD) rats. The settings on record: 3 nmol/kg. The essentials: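 Food consumption was logged per animal every hour up to 7 h and again at 24 h (occasionally 48 h) after a single 0.01–3 mg/kg dose, given sc, po or ip at dark-phase onset. Ad libitum fed SD rats, 200–250 g, kept on inverted light/dark cycle; vehicle group included, outliers removed by Grubbs test.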

Starred links: 1 amine or outer side, 2 acyl side, 3 side chain; linkers in the order of their positions; H or OH if unused. Positions of bridges follow the written chain, without caps; N, C: chain ends. Residues, ends and D or L forms follow the SMILES beside them. *: point of attachment. C20 diacid = O=C(O)CCCCCCCCCCCCCCCCCCC(=O)*; C18 diacid = O=C(O)CCCCCCCCCCCCCCCCC(=O)*; γGlu = O=C(O)[C@H](CCC(=O)[*:2])N[*:1]

`CC[C@H](C)[C@H](NC(=O)[C@@H]1CCCN1C(=O)CNC(=O)[C@H](Cc1ccccc1)NC(=O)[C@H](CC(N)=O)NC(=O)[C@H](CC(N)=O)NC(=O)[C@H](CO)NC(=O)[C@H](CO)NC(=O)[C@H](Cc1c[nH]cn1)NC(=O)[C@H](Cc1c[nH]cn1)NC(=O)[C@H](CC(C)C)NC(=O)[C@H](Cc1ccccc1)NC(=O)[C@H](CCC(=O)O)NC(=O)[C@H](C)NC(=O)[C@H](CC(C)C)NC(=O)[C@H](CCCNC(=N)N)NC(=O)[C@H](CCC(N)=O)NC(=O)[C@@H](NC(=O)[C@H](C)NC(=O)[C@@H]1CSSC[C@H](NC(=O)[C@H](CCCNC(=N)N)NC(=O)CC[C@H](NC(=O)CCCCCCCCCCCCCCCCCCC(=O)O)C(=O)O)C(=O)N[C@@H](CC(N)=O)C(=O)N[C@@H]([C@@H](C)O)C(=O)N[C@@H](C)C(=O)N[C@@H]([C@@H](C)O)C(=O)N1)[C@@H](C)O)C(=O)N[C@@H](CC(C)C)C(=O)N1CCC[C@H]1C(=O)N1CCC[C@H]1C(=O)N[C@H](C(=O)N[C@@H](CC(N)=O)C(=O)N[C@H](C(=O)NCC(=O)N[C@@H](CO)C(=O)N[C@@H](CC(N)=O)C(=O)N[C@H](C(=O)N1CCC[C@H]1C(N)=O)[C@@H](C)O)C(C)C)[C@@H](C)O` [Example 96, N-alpha-[(S)-4-Carboxy-4-(19-carboxynonadecanoylamino)butyryl]-[Arg1,Glu14,His17,Pro37]-pramlintide] ({C20 diacid-γGlu}-RCNTATCATQRLAEFLHHSSNNFGPILPPTNVGSNTP-NH2; disulfide 2-7 (inferred)) gave a half-life in data set [1] of 4.46 days. Further, in the data set with food intake, the “Food intake reduction 0-24 h 3 nmol/kg (%)” value is reported as 69% and the “Food intake reduction 24-48 h 3 nmol/kg (%)” value is listed as 89%.

In data set [1], `CC[C@H](C)[C@H](NC(=O)[C@@H]1CCCN1C(=O)CNC(=O)[C@H](Cc1ccccc1)NC(=O)[C@H](CC(N)=O)NC(=O)[C@H](CC(N)=O)NC(=O)[C@H](CO)NC(=O)[C@H](CO)NC(=O)[C@H](Cc1c[nH]cn1)NC(=O)[C@H](Cc1c[nH]cn1)NC(=O)[C@H](CC(C)C)NC(=O)[C@H](Cc1ccccc1)NC(=O)[C@H](CCC(=O)O)NC(=O)[C@H](C)NC(=O)[C@H](CC(C)C)NC(=O)[C@H](CCCNC(=N)N)NC(=O)[C@H](CCC(N)=O)NC(=O)[C@@H](NC(=O)[C@H](C)NC(=O)[C@@H]1CSSC[C@H](NC(=O)[C@H](CCCCN)NC(=O)CC[C@H](NC(=O)CCCCCCCCCCCCCCCCC(=O)O)C(=O)O)C(=O)N[C@@H](CC(N)=O)C(=O)N[C@@H]([C@@H](C)O)C(=O)N[C@@H](C)C(=O)N[C@@H]([C@@H](C)O)C(=O)N1)[C@@H](C)O)C(=O)N[C@@H](CC(C)C)C(=O)N1CCC[C@H]1C(=O)N1CCC[C@H]1C(=O)N[C@H](C(=O)N[C@@H](CC(N)=O)C(=O)N[C@H](C(=O)NCC(=O)N[C@@H](CO)C(=O)N[C@@H](Cc1c[nH]cn1)C(=O)N[C@H](C(=O)N[C@@H](Cc1ccc(O)cc1)C(N)=O)[C@@H](C)O)C(C)C)[C@@H](C)O` [Example 59, N-alpha-[(S)-4-Carboxy-4-(17-carboxyheptadecanoylamino)butyryl]-[Glu14,His17,His35]-pramlintide] ({C18 diacid-γGlu}-KCNTATCATQRLAEFLHHSSNNFGPILPPTNVGSHTY-NH2; disulfide 2-7 (inferred)) showed a half-life of 2.46 days. Further, in the data set with food intake, the “Food intake reduction 0-24 h 3 nmol/kg (%)” value was found to be 59% and the “Food intake reduction 24-48 h 3 nmol/kg (%)” value was determined as 27%.

The values above are taken from US8722849B2, “Polypeptides” (Novo Nordisk A/S, priority 2011, dated 2014).
